Each structure is given as a SMILES string. Counter-ions that a name gives are not always drawn. Like-named read-outs stand apart in the source and are kept apart here. Where only a bound is given, the exact number is not on record here.

We go through 4 molecules from patent US8188121B2, “Substituted pyridines as antiparasitic AZA teraryl compounds” (The University of North Carolina at Chapel Hill, priority 2005, dated 2012).

In one data set the test system is DNA minor groove. As to the kind of experiment: ΔTm of linear triaryl dications (DNA minor groove binding).
For the next data set, the system named is L-6 rat mycoblast cells. As to the kind of experiment: cells. As to the method: (§1) In vitro antiprotozoal activities were measured following established protocols. See Ismail, M. A., et al., J. Med. Chem., 46, 4761-4769 (2003); Stephens, C. E., et al., Bioorg. Med. Chem. Lett., 13, 2065-2069 (2003) (in vitro assay against Leishmania donovani).
(§2) Testing methods are as described above in Example 17.

Data set [1] concerns Plasmodium falciparum (P. f.). Description: In vitro antiprotozoal activity against P. f. Type of data set: cell-based. As to the method: as §1, §2
Data set [2] relates to Trypanosoma brucei rhodesiense (T. b. r.). As to the kind of experiment: In vitro antiprotozoal activity against T. b. r. Type of data set: cell-based. Particulars: read-out: T. b. r. IC50. As to the method:
as §1, §2

In data set [3] the test system is Leishmania donovani (L. d.). As to the kind of experiment: In vitro antiprotozoal activity against L. d. Type of data set: cell-based. As to conditions: read-out: L. d. IC50. Here is the method: as §1, §2
Data set [4] has as its system STIB 900 strain of Trypanosoma brucei rhodesiense. Description: T. b. r. STIB 900 mouse model. Type of data set: in vivo. As to the method: The activities of compounds 20, 18, 21, 48, 23c, 24c, 5, 4, and 10 against the STIB 900 strain of Trypanosoma brucei rhodesiense (T. b. r.) in a mouse model are shown in Table 3. […] Groups of four mice were infected intraperitoneally with 2×10^5 bloodstream forms of T. b. r. STIB 900 which originates from a patient in Tanzania. On days 3, 4, 5, and 6 post-infection the experimental groups were treated with the indicated compound, either by the intraperitoneal route, or for prodrugs, by the oral route. Usually the highest tolerated dose was used. The highest tolerated dose was determined in a pretoxicological experiment.
Parasitemia of the mice was checked daily up to day 14 post-infection and thereafter 2 times per week up to day 60. One group of mice was not treated and acted as control. Untreated control animals expire between day 7 and 8 post-infection. For relapsing mice, the day of death was recorded and the survival time determined. For the data shown in Table 3, cures reflect the number of mice that survive and are parasite free for 60 days. Survival reflects the average days of survival.
as §2

[5] abbreviates: Rattus norvegicus, L6, read-out: CT IC50.
Setting [6] is: Plasmodium falciparum, Table 1, k/K = thousand.
The mark [7] stands for this setting: Trypanosoma brucei, RHODESIENSE, Table 1, k/K = thousand.

Broadly, the ΔTm is the shift of the melting midpoint relative to a reference. In general, IC50 refers to the concentration at which inhibition is half-maximal. Usually melting point stands for the temperature, or range, at which the solid turns liquid. The molecule `Cl.N=C(N)c1ccc(-c2ccc(-c3ccc(C(=N)N)cc3)c(C(F)(F)F)c2)cc1` [Compound 23b, 2′-Trifluoromethyl-[1,1′;4′,1″]terphenyl-4,4″-bis-amidine hydrochloride salt] registered a melting point above 300 °C. In addition, in the data set on DNA minor groove (Table 1), the shift in melting temperature (ΔTm) is 10.1 °C. Further, the IC50 in the data set with L-6 rat mycoblast cells (setting [5]) was found to be 9000 nM. In addition, the IC50 in data set [1] (setting [6]) was found to be 15 nM. Besides, the IC50 in data set [2] (setting [7]) worked out at 48 nM. Besides, the half-maximal inhibitory concentration (IC50) in data set [3] (Leishmania donovani, Table 1) was 3000 nM.

Take `N=C(N)c1ccc(-c2ccc3cc(-c4ccc(C(=N)N)cc4)ccc3c2)cc1` [Compound 38b, Phenyl[1,2′]naphthyl[6′,1″]phenyl-4,4″-bis-amidine]: the thermal shift (ΔTm) in the data set on DNA minor groove (Table 2) turned out to be 18.2 °C. Further, the 50% inhibitory concentration (IC50) in the data set with L-6 rat mycoblast cells stood at 8000 nM; in data set [1] (Table 2, K = thousand), 19 nM; in data set [2] (Table 2, K = thousand) it was 53 nM; in data set [3] (Table 2), 280 nM.

In the case of `N=C(N)Nc1ccc(-c2ccc(-c3ccc(NC(=N)N)cc3)cc2)cc1` [Compound 48, 4,4″-Bis-guanidino-[1,1′;4′,1″]terphenyl], in the data set with DNA minor groove (Table 1), the thermal shift (ΔTm) worked out at 12.2 °C. Also, the IC50 was 25400 nM in the data set with L-6 rat mycoblast cells (Rattus norvegicus, L6, read-out: CT IC50, Table 1, L-6 cells); 27 nM in data set [1] (setting [6]); 18 nM in data set [2] (setting [7]); 1200 nM in data set [3] (Leishmania donovani, Table 1). In data set [4] (20 mg/kg ip, days 3-6 post-infection, average days of survival), this molecule came in with a Survival above 60 days. For the same molecule, in data set [4] (Trypanosoma brucei, 1440 h, 20 mg/kg ip, days 3-6 post-infection, mice surviving parasite free for 60 days, groups of four, read-out: Cures (converted)), the responders at 20 mg/kg was 0%.

With `N=C(N)c1ccc(-c2ccc(-c3ccc(C(=N)N)nc3)cc2)cn1` [Compound 66, 1,4-Bis-(2′-amidinopyridin-5′-yl)-phenylene hydrochloride salt], the thermal shift (ΔTm) with DNA minor groove (Table 1) was determined as 16.1 °C. Moreover, the IC50 with L-6 rat mycoblast cells (setting [5]) was determined as 31300 nM; in the data set with L-6 rat mycoblast cells (Rattus norvegicus, L6, read-out: CT IC50, Table 4, L-6 cells), 1200 nM; in data set [3] (Leishmania donovani, Table 1), 720 nM; in data set [3] (Leishmania donovani, Table 4), 63 nM. For the same molecule, in data set [4] (5 mg/kg ip, Table 5), the Cures was 0/4. In data set [4] (5 mg/kg ip, Table 5), this molecule returned a Survival above 51.5 days.
